Data: US20070128596A1, “Reagents and methods for identifying and modulating expression of tumor senescence genes” (priority 2002, published 2007)

Legend:
Assay type in all cases: cell-based, human
[1] = system: Maspin; experiment: Immunoblotting of protein products of senescence-associated genes in doxorubicin-treated HCT116 cells
Protocol: (§1) In these experiments, poly(A)^+ RNA and protein extracts were prepared from PKH2^lo and PKH2^hi cell populations, separated in different experiments 6, 9 or 10 days after release from doxorubicin. Fluorescent cDNA probes were synthesized and used for hybridization with the Human UniGEM V 2.0 cDNA microarray and signal analysis (assays were conducted by IncyteGenomics, St. Louis, Mo., as described at that company's web site, www.incyte.com). Changes in gene expression were verified by semi-quantitative reverse transcription-PCR (RT-PCR), essentially as described (Noonan et al., 1990, Proc. Natl. Acad. Sci. USA 87: 7160-7164), using β-actin as an internal normalization standard and the oligonucleotide primers shown in Table 3. RT-PCR analysis was carried out using two pairs of proliferating- and senescent-cell RNA preparations isolated in independent experiments, with the same results; for a subset of the genes, the assays were reproduced with the same pair of RNA samples. […] Bands were detected using horseradish peroxidase-labeled secondary antibodies and ECL chemiluminescence detection kit (Amersham Pharmacia Biotech, Piscataway, N.J.).

[2] = system: p21; experiment: Immunoblotting of p53 and p21 in wild type, p21−/− and p53−/− HCT116 cell lines treated with doxorubicin; conditions: wild type vs p53−/− and p21−/− HCT116
Protocol: as §1

[3] = system: HCT116 colon carcinoma cells; experiment: Senescence-associated β-galactosidase (SA-β-gal) staining; conditions: PKH2hi fraction after 200 nM doxorubicin 24 hr
Protocol: (§2) HCT116 colon carcinoma cells (Myohanen et al., 1998, Cancer Res. 58: 591-593; Accession No. CCL-247, American Type Culture Collection, Manassas, Va.), including wild-type, p21−/− (clone 80S4) and p53−/− (clone 379.2) cell lines (a gift of Dr. B. Vogelstein, Johns Hopkins University) were grown in Dulbecco Modified Eagle Medium with 10% FC2 serum. Cells were plated at 5×10^6 cells per 15-cm plate and treated for 24-hr with 200 nM doxorubicin. Thereafter, cells were allowed to recover in drug-free media up to 10 days. For fluorescence-activated cell sorter (FACS) analysis of cell division, cells were labeled with PKH2 (a lipophilic fluorophore; Sigma Chemical Co., St. Louis, Mo.), which stably incorporates into the plasma membrane and distributes evenly between daughter cells, resulting in gradual decrease in PKH2 fluorescence during consequent cell divisions (Horan et al., 1989, Nature 340: 167-168). FACS analysis and cell sorting carried out as described in Chang et al. (1999, Cancer Res. 59: 3761-3767 and 1999, Oncogene 18: 4808-4818). Sorted fractions of senescent (pKH2^hi) and proliferating (PKH2^lo) cells (90-95% purity) were analyzed for DNA content using propidium iodide (PI) staining and FACS analysis as described by Jordan et al. (1996, Cancer Res. 56: 816-825). […]

[4] = system: HCT116 colon carcinoma cells; experiment: FACS analysis of cell division by PKH2 fluorescence after doxorubicin treatment; conditions: 200 nM doxorubicin 24 hr
Protocol: as §2
Changes in PKH2 fluorescence were monitored by FACS on different days after doxorubicin treatment. […]

[5] = system: senescence-associated genes in HCT116 cells; experiment: RT-PCR of senescence-associated gene expression in wild type, p21−/− and p53−/− HCT116 cells upon doxorubicin treatment
Protocol: as §1
To elucidate the roles of p53 and p21 in the observed changes in gene expression, expression of senescence-associated genes upon doxorubicin treatment of wild type, p21−/− and p53−/− HCT116 cells was analyzed. RNA samples were isolated before the addition of the drug, immediately after one-day treatment with doxorubicin, and on three consecutive days after the removal of the drug.

[6] = system: HCT116 colon carcinoma cells; experiment: Clonogenicity of sorted populations (colony formation); conditions: PKH2hi fraction separated after doxorubicin treatment
Protocol: as §2

[7] = system: HCT116 colon carcinoma cells; experiment: DNA content analysis by propidium iodide staining and FACS; conditions: PKH2hi fraction after 200 nM doxorubicin 24 hr
Protocol: as §2

Q: COc1cccc2c1C(=O)c1c(O)c3c(c(O)c1C2=O)C[C@@](O)(C(=O)CO)C[C@@H]3O[C@H]1C[C@H](N)[C@H](O)[C@H](C)O1 [doxorubicin] was tested. Which “Maspin induction at the protein level” value [1] did it give?
A: very strong induction

Q: What about the “p21 protein induction, dependence on p53” value [2] of the same compound?
A: strongly dependent on p53

Q: And the “SA-β-gal staining of PKH2hi cells” value [3]?
A: stained positively for SA-β-gal

Q: What about the “day on which a proliferating cell population (PKH2lo) emerged” value ([4]; days after treatment) of the same compound?
A: 4 days

Q: And the “growth arrest of PI-negative cells (PKH2 fluorescence)” value ([4]; first 2-3 days after treatment)?
A: remained growth-arrested

Q: And the “Maspin induction in p53−/− cells” value ([5]; p53−/− HCT116)?
A: still readily detectable in p53−/− cells

Q: What about the “BTG2 induction in p53−/− cells” value ([5]; p53−/− vs wild type HCT116) of the same compound?
A: inducible by doxorubicin in p53−/− cells, albeit to a lesser degree than in the wild type cells

Q: What about the “EPLIN induction in the unsorted cells” value ([5]; unsorted HCT116 cells, compared with the other growth-inhibitory genes) of the same compound?
A: weakest induction

Q: And the “Amphiregulin induction, dependence on p53” value ([5]; wild type vs p53−/− HCT116)?
A: only moderate dependence on p53

Q: What about the “BTG1 induction, dependence on p53” value ([5]; wild type vs p53−/− HCT116) of the same compound?
A: independent of p53

Q: What about the “IGFBP-6 induction, dependence on p53” value ([5]; wild type vs p53−/− HCT116) of the same compound?
A: no dependence on p53

Q: What about the “MIC-1 induction, dependence on p53” value ([5]; wild type vs p53−/− HCT116) of the same compound?
A: only weak dependence on p53

Q: And the “colony formation by PKH2hi cells” value [6]?
A: have lost their proliferative capacity

Q: And the “cell cycle phase of PKH2hi cells (DNA content)” value [7]?
A: remained in G2
